Legend:
Ad5 dlX [an adenovirus] = test: Amount of viral DNA in HeLa cells treated before infection with adenovirus; format: cell-based; conditions: 5 μM or more
Procedure: (3) Viral DNA was extracted according to a method mentioned in “Protocols for Experiments of Virus” (pages 24-25; published by Medical View) from the HeLa cells which were treated with the cyclopentenone and infected by adenovirus followed by incubation by the same manner as in Example 2-(2).
Thus, cells infected by virus were washed with a saline solution buffered by phosphoric acid, suspended in 1 ml of aqueous solution of 0.6% sodium laurylsulfate (SDS) and 10 mM EDTA and 3.0 ml of 5M aqueous solution of sodium chloride was added thereto. The mixture was allowed to stand at 0° C. for one hour and centrifuged and 3 ml of ethanol was added to the resulting supernatant liquid followed by mixing. The precipitate obtained by centrifugal separation was dissolved in 0.2 ml of TE buffer (10 mM Tris-HCl of pH 8.0 and 1 mM EDTA), then 2 μl of 10% SDS and 4 μl of 10 mg/ml proteinase K (manufactured by Takara Shuzo) were added thereto and the mixture was kept at 37° C. for one hours. This was extracted with a mixture of equal amounts of phenol and chloroform twice, 20 μl of 3M sodium acetate and 400 μl of ethanol were added to the aqueous layer, the mixture was centrifuged and the precipitate was dissolved in 50 μl of the TE buffer to give a DNA solution. […]

[1] = tested on: adenovirus of type 5 (Adenoid 75; ATCC VR-5); test: Adenovirus hexon protein in HeLa cells, cyclopentenone added after infection; format: cell-based; conditions: 10 μM or more, 20 hours
Procedure: (4) After HeLa cells were incubated by the same manner as in Example 2-(2), DMEM containing 5% of fetal bovine serum which contained adenovirus of type 5 (Adenoid 75; ATCC VR-5) was added to the cells without addition of the cyclopentenone whereby the cells were infected by that. […] After the incubation, detection of hexon proteins of adenovirus was conducted by the same manner as in Example 2-(2).

[2] = tested on: adenovirus type 5 (Adenoid 75; ATCC VR-5); test: Adenovirus hexon protein in HeLa cells, cyclopentenone before and after infection; format: cell-based; conditions: 10 μM or more
Procedure: (5) HeLa cells were incubated by the same manner as in Example 2-(2) and treated with the cyclopentenone. After that, the cells were infected by the adenovirus type 5 (Adenoid 75; ATCC VR-5) by the same manner as in Example 2-(4) and incubated in a medium to which the cyclopentenone was added. After the incubation, detection of the hexon proteins of adenovirus was conducted by the same manner as in Example 2-(2).

[3] = tested on: adenovirus type 5 (Adenoid 75; ATCC VR-5); test: Amount of viral DNA in HeLa cells, cyclopentenone before and after infection; format: cell-based; conditions: 5 μM or more
Procedure: (6) Amount of the viral DNA was measured by the same manner as in Example 2-(3) from the HeLa cells which were treated with the cyclopentenone infected by the adenovirus type 5 (Adenoid 75; ATCC VR-5) followed by incubating by the same manner as in Example 2-(5).

NIH3T3/E7-2 = test: Colony formation of HPV16 type E7-transformed cell strain NIH3T3/E7-2; format: cell-based; conditions: 5 μM
Procedure: Each incubation was conducted in three runs.

H9 cells = test: Survival rate of human T cells, H9; format: cell-based; conditions: three days
[4] = tested on: H9 cells infected by HIV-1IIIB (H9-3B); test: Survival rate of HIV-infected T cells, H9-3B; format: cell-based, human; conditions: three days
Procedure: (§1) The cyclopentenone (1-5 μM) was added to CEM-SS cells infected by HIV-1IIIB (abbreviated as CEM-3B) or to H9 cells infected by HIV-1IIIB (abbreviated as H9-3B) and incubated for three days. In both cells, 90% or more of the cells were infected by HIV-1IIIB. Numbers of living and dead cells were counted and the survival rate of the cells was calculated therefrom.
Thus, FIG. 3 and FIG. 4 are the graphs showing the relation between the concentration of the cyclopentenone added and the survival rate of the cells in which abscissa is the concentration (μM) of the cyclopentenone added While ordinate is the survival rate (%) of the cells after incubating for three days. FIG. 3 is the result when CEM-3B were used while FIG. 4 is the result when H9-3B were used.

HIV-1IIIB [5] = test: p24 antigen in supernatant liquid of CEM-3B culture; format: cell-based; conditions: three days
Procedure: as §1
(§2) Concentration of the p24 antigen contained in the supernatant liquid of the culture after incubation for three days in the case of Example 5-(2) was measured. The result was that the concentration of p24 decreased corresponding to the centration of the cyclopentenone added thereto whereupon the anti-HIV action was noted. In Table 10, the figures in parentheses are the ratio of each of the supernatant liquid of the cell cultures (when none of the cyclopentenone was added) to the concentration of p24 expressed in terms of %.

HIV-1IIIB [6] = test: p24 antigen in supernatant liquid of H9-3B culture; format: cell-based; conditions: three days
Procedure: as §1, §2

[7] = tested on: carcinogenesis caused by a two-stage carcinogenesis on skin; test: Two-stage (DMBA/TPA) carcinogenesis on skin of mice; format: in vivo, mice of ICR strain; conditions: 2.5 mg per mouse
Procedure: Hair on the back of mice of ICR strain (purchased from Nippon SLC; seven weeks age; female) was shaved and DMBA (dimethylbenzanthracene) as an initiator in a form of a solution in acetone was applied thereto at the dose of 50 μg/mouse.
Thus, FIG. 5 is a graph showing the anti-carcinogenic action of the cyclopentenone in which ordinate is a carcinogenic rate while abscissa is time (weeks). In the graph, open triangles, black triangles and open circles stand for a group treated with 2.5 mg of the cyclopentenone per mouse (12 mice in total), a group treated with 0.8 mg of the cyclopentenone per mouse (11 mice in total) and a control group (12 mice in total), respectively.

[8] = Anti-inflammatory test of TPA in conchae of mice; format: in vivo; conditions: 2.5 mg (per mouse) applied to concha of the mouse
NIH3T3 cells = test: Colony formation of NIH3T3 cells; conditions: 5 μM, nine days, NIH3T3, three runs
NIH3T3/Y-1 = test: Colony formation of control-vector cell strain NIH3T3/Y-1; conditions: 5 μM, nine days, NIH3T3/Y-1, three runs

SMILES: O=C1C=CC(O)C1O (centres unmarked) [cyclopentenone, 4,5-dihydroxy-2-cyclopenten-1-one]
- amount of viral DNA compared with the control (Ad5 dlX [an adenovirus]): apparent decrease
- amount of hexon proteins compared with the control [1]: apparent decrease
- amount of the hexon proteins compared with the control [2]: apparent decrease
- amount of the viral DNA compared with the control [3]: apparent decrease
- sensitivity of the cells into which E7 was introduced compared with the control cells (NIH3T3/E7-2): high sensitivity
- Numbers (average ± SD) of the Colonies (NIH3T3/E7-2; nine days, NIH3T3/E7-2, three runs): 22.3 ± 3.5
- survival rate of the cells (H9 cells): no significant decrease
- survival rate of the cells ([4]; 3 μM): significantly decreased
- survival rate of the cells ([4]; 5 μM): further decreased
- Concentration of p24 in Supernatant Liquid of the cell cultures (HIV-1IIIB [5]; 1 μM): 232 ng/mL
- ratio to the concentration of p24 when none of the cyclopentenone was added (HIV-1IIIB [5]; 1 μM): 83%
- Concentration of p24 in Supernatant Liquid of the cell cultures (HIV-1IIIB [5]; 3 μM): 176 ng/mL
- ratio to the concentration of p24 when none of the cyclopentenone was added (HIV-1IIIB [5]; 3 μM): 63%
- Concentration of p24 in Supernatant Liquid of the cell cultures (HIV-1IIIB [5]; 5 μM): 175 ng/mL
- ratio to the concentration of p24 when none of the cyclopentenone was added (HIV-1IIIB [5]; 5 μM): 63%
- Concentration of p24 in Supernatant Liquid of the cell cultures (HIV-1IIIB [6]; 1 μM): 203 ng/mL
- ratio to the concentration of p24 when none of the cyclopentenone was added (HIV-1IIIB [6]; 1 μM): 97%
- Concentration of p24 in Supernatant Liquid of the cell cultures (HIV-1IIIB [6]; 3 μM): 157 ng/mL
- ratio to the concentration of p24 when none of the cyclopentenone was added (HIV-1IIIB [6]; 3 μM): 75%
- Concentration of p24 in Supernatant Liquid of the cell cultures (HIV-1IIIB [6]; 5 μM): 148 ng/mL
- ratio to the concentration of p24 when none of the cyclopentenone was added (HIV-1IIIB [6]; 5 μM): 70%
- carcinogenic rate ([7]; applied one hour before each TPA, within 15 weeks (1 mouse out of 12)): 8.3%
- carcinogenic rate ([7]; within and after 19 weeks (3 mice out of 12)): 25%
- anti-inflammatory activity [8]: no anti-inflammatory activity
- Numbers (average ± SD) of the Colonies (NIH3T3 cells): 85.3 ± 4.0
- Numbers (average ± SD) of the Colonies (NIH3T3/Y-1): 71.3 ± 2.3

— patent US6518317B1, “Antiviral agents” (priority 1997, dated 2003)
